Like-named read-outs stand apart in the source and are kept apart here.
Target: T1, BCL6 (Homo sapiens, UniProt P41182)
T1 construct: endogenous in cells; host or cells: T47D breast cancer epithelial cells
Experiment: Immunofluorescence protocol for high content imaging of BCL6 (degradation) in T47D cells, 3 days compound treatment
Type: cell-based
Conditions: for Dmax: read-out: Mean Dmax (%)** category; for DC50: read-out: Mean DC50 (nM)* category
In short: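 High content immunofluorescence imaging (10×, 4 fields/well) of BCL6 using rabbit primary antibody, Alexa-488 secondary, cell mask and Hoechst nuclear stain after PFA fixation. Before staining, T47D cells (7K/well) were exposed for 3 days at 37° C to 3-fold serial dilutions of compound, top final concentration 0.1 or 1 μM.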

[1] = T47D cells, 3 days compound treatment

Row | Dmax (T47D) | DC50 | DC50 [1] | Dmax [1] | SMILES
1 | ≥ 70% | < 10 nM |  |  | CNC(=O)COc1cc2cc(Nc3nc(N4CCC(CN5CCC6(CC5)CCN6c5ccc6c(c5)CN(C5CCC(=O)NC5=O)C6=O)CC4)ncc3Cl)ccc2n(C(C)C)c1=O (stereo not shown) [Compound 336, 2-{[6-({5-chloro-2-[4-({1-[2-(2,6-dioxopiperidin-3-yl)-1-oxo-2,3-dihydro-1H-isoindol-5-yl]-1,7-diazaspiro[3.5]nonan-7-yl}methyl)piperidin-1-yl]pyrimidin-4-yl}amino)-2-oxo-1-(propan-2-yl)-1,2-dihydroquinolin-3-yl]oxy}-N-methylacetamide]
2 |  |  | < 10 nM | < 50% | CNC(=O)COc1cc2cc(Nc3nc(N4CCN(CC5C6CN(c7ccc8c(c7)C(=O)N(C7CCC(=O)NC7=O)C8=O)CC56)CC4)ncc3Cl)ccc2n(C(C)C)c1=O (stereo not shown) [Compound 155, 2-{[6-({5-chloro-2-[4-({3-[2-(2,6-dioxopiperidin-3-yl)-1,3-dioxo-2,3-dihydro-1H-isoindol-5-yl]-3-azabicyclo [3.1.0]hexan-6-yl}methyl)piperazin-1-yl]pyrimidin-4-yl}amino)-2-oxo-1-(propan-2-yl)-1,2-dihydroquinolin-3-yl]oxy}-N-methylacetamide]
3 | 50 to 70% | 10 to 50 nM |  |  | CNC(=O)COc1cc2cc(Nc3nc(N4CCC(N5CCC6(CN(CC7CCN(c8ccc9c(c8)C(=O)N(C8CCC(=O)NC8=O)C9=O)CC7)C6)C5)CC4)ncc3Cl)ccc2n(C(C)C)c1=O (stereo not shown) [Compound 228, 2-({6-[(5-chloro-2-{4-[2-({1-[2-(2,6-dioxopiperidin-3-yl)-1,3-dioxo-2,3-dihydro-1H-isoindol-5-yl]piperidin-4-yl}methyl)-2,6-diazaspiro[3.4]octan-6-yl]piperidin-1-yl}pyrimidin-4-yl)amino]-2-oxo-1-(propan-2-yl)-1,2-dihydroquinolin-3-yl}oxy)-N-methylacetamide]
4 |  |  | ≥ 100 nM | ≥ 70% | CNC(=O)COc1cc2cc(Nc3nc(N4CCN(CC5CCN(c6ccc7c(c6OC)CN(C6CCC(=O)NC6=O)C7=O)CC5)CC4)ncc3Cl)ccc2n(C(C)C)c1=O (stereo not shown) [Compound 20, 2-{[6-({5-chloro-2-[4-({1-[2-(2,6-dioxopiperidin-3-yl)-4-methoxy-1-oxo-2,3-dihydro-1H-isoindol-5-yl]piperidin-4-yl}methyl)piperazin-1-yl]pyrimidin-4-yl}amino)-2-oxo-1-(propan-2-yl)-1,2-dihydroquinolin-3-yl]oxy}-N-methylacetamide]
5 |  |  | < 10 nM | 50 to 70% | CNC(=O)COc1cc2cc(Nc3nc(N4CCN(C(C)(C)C5CCN(c6cc7c(cc6OC)C(=O)N(C6CCC(=O)NC6=O)C7)CC5)CC4)ncc3Cl)ccc2n(C(C)C)c1=O (stereo not shown) [Compound 112, 2-{[6-({5-chloro-2-[4-(2-{1-[2-(2,6-dioxopiperidin-3-yl)-6-methoxy-1-oxo-2,3-dihydro-1H-isoindol-5-yl]piperidin-4-yl}propan-2-yl)piperazin-1-yl]pyrimidin-4-yl}amino)-2-oxo-1-(propan-2-yl)-1,2-dihydroquinolin-3-yl]oxy}-N-methylacetamide]
6 |  |  | < 10 nM | 50 to 70% | CNC(=O)COc1cc2cc(Nc3nc(N4CCC(CN5CC6(CCN(c7cc(F)c8c(c7)CN(C7CCC(=O)NC7=O)C8=O)CC6)C5)CC4)ncc3Cl)ccc2n(C(C)C)c1=O (stereo not shown) [Compound 86, 2-{[6-({5-chloro-2-[4-({7-[2-(2,6-dioxopiperidin-3-yl)-7-fluoro-1-oxo-2,3-dihydro-1H-isoindol-5-yl]-2,7-diazaspiro[3.5]nonan-2-yl}methyl)piperidin-1-yl]pyrimidin-4-yl}amino)-2-oxo-1-(propan-2-yl)-1,2-dihydroquinolin-3-yl]oxy}-N-methylacetamide]
7 |  |  | 50 to 100 nM | < 50% | CNC(=O)COc1cc2cc(Nc3nc(N4CCC(OC5CCC(N6CCC(c7cccc8c7C(=O)N(C7CCC(=O)NC7=O)C8=O)CC6)C5)CC4)ncc3Cl)ccc2n(C(C)C)c1=O (stereo not shown) [Compound 148, 2-({6-[(5-chloro-2-{4-[(3-{4-[2-(2,6-dioxopiperidin-3-yl)-1,3-dioxo-2,3-dihydro-1H-isoindol-4-yl]piperidin-1-yl}cyclopentyl)oxy]piperidin-1-yl}pyrimidin-4-yl)amino]-2-oxo-1-(propan-2-yl)-1,2-dihydroquinolin-3-yl}oxy)-N-methylacetamide]
8 | 50 to 70% | < 10 nM |  |  | CNC(=O)COc1cc2cc(Nc3nc(N4CCC(N5CCC6(CN(CC7CCN(c8ccc9c(c8)CN(C8CCC(=O)NC8=O)C9=O)CC7)C6)C5)CC4)ncc3Cl)ccc2n(C(C)C)c1=O (stereo not shown) [Compound 236, 2-({6-[(5-chloro-2-{4-[2-({1-[2-(2,6-dioxopiperidin-3-yl)-1-oxo-2,3-dihydro-1H-isoindol-5-yl]piperidin-4-yl}methyl)-2,6-diazaspiro[3.4]octan-6-yl]piperidin-1-yl}pyrimidin-4-yl)amino]-2-oxo-1-(propan-2-yl)-1,2-dihydroquinolin-3-yl}oxy)-N-methylacetamide]
9 |  |  | ≥ 100 nM |  | CNC(=O)COc1cc2cc(Nc3nc(N4CCC[C@H](COc5cccc6c5C(=O)N(C5CCC(=O)NC5=O)C6=O)C4)ncc3Cl)ccc2n(CCN(C)C)c1=O (stereo partly drawn) [Compound 141, 2-{[6-({5-chloro-2-[(3S)-3-({[2-(2,6-dioxopiperidin-3-yl)-1,3-dioxo-2,3-dihydro-1H-isoindol-4-yl]oxy}methyl)piperidin-1-yl]pyrimidin-4-yl}amino)-1-[2-(dimethylamino)ethyl]-2-oxo-1,2-dihydroquinolin-3-yl]oxy}-N-methylacetamide]
10 | 50 to 70% | < 10 nM |  |  | CNC(=O)COc1cc2cc(Nc3nc(N4CCC(N(C)C5CCC6(CC5)CN(c5ccc7c(c5)C(=O)N(C5CCC(=O)NC5=O)C7=O)C6)CC4)ncc3Cl)ccc2n(C(C)C)c1=O (stereo not shown) [Compound 308, 2-{[6-({5-chloro-2-[4-({2-[2-(2,6-dioxopiperidin-3-yl)-1,3-dioxo-2,3-dihydro-1H-isoindol-5-yl]-2-azaspiro[3.5]nonan-7-yl} (methyl)amino)piperidin-1-yl]pyrimidin-4-yl}amino)-2-oxo-1-(propan-2-yl)-1,2-dihydroquinolin-3-yl]oxy}-N-methylacetamide]
11 | ≥ 70% | < 10 nM |  |  | CNC(=O)COc1cc2c(F)c(Nc3nc(N4CCC(F)(CN5CCC6(CC5)CN(c5ccc7c(c5)CN(C5CCC(=O)NC5=O)C7=O)C6)CC4)ncc3Cl)ccc2n(C(C)C)c1=O (stereo not shown) [Compound 389, 2-{[6-({5-chloro-2-[4-({2-[2-(2,6-dioxopiperidin-3-yl)-1-oxo-2,3-dihydro-1H-isoindol-5-yl]-2,7-diazaspiro[3.5]nonan-7-yl}methyl)-4-fluoropiperidin-1-yl]pyrimidin-4-yl}amino)-5-fluoro-2-oxo-1-(propan-2-yl)-1,2-dihydroquinolin-3-yl]oxy}-N-methylacetamide]

Row | SMILES | Dmax (T47D) | DC50 | DC50 [1] | Dmax [1]
12 | CNC(=O)COc1cc2cc(Nc3nc(N4CCC(O[C@H]5C[C@H](N6C7CCC6CN(c6ccc8c(c6)C(=O)N(C6CCC(=O)NC6=O)C8=O)C7)C5)CC4)ncc3Cl)ccc2n(C(C)C)c1=O (stereo partly shown) [Compound 372, 2-({6-[(5-chloro-2-{4-[(1r,3r)-3-{3-[2-(2,6-dioxopiperidin-3-yl)-1,3-dioxo-2,3-dihydro-1H-isoindol-5-yl]-3,8-diazabicyclo[3.2.1]octan-8-yl}cyclobutoxy]piperidin-1-yl}pyrimidin-4-yl)amino]-2-oxo-1-(propan-2-yl)-1,2-dihydroquinolin-3-yl}oxy)-N-methylacetamide] | 50 to 70% | < 10 nM |  | 
13 | CNC(=O)COc1cc2cc(Nc3nc(N4CCC(O[C@H]5C[C@H](N6CCC(c7cc8c(cc7OC)C(=O)N(C7CCC(=O)NC7=O)C8=O)CC6)C5)CC4)ncc3Cl)ccc2n(C(C)C)c1=O (stereo partly shown) [Compound 160, 2-({6-[(5-chloro-2-{4-[(1r,3r)-3-{4-[2-(2,6-dioxopiperidin-3-yl)-6-methoxy-1,3-dioxo-2,3-dihydro-1H-isoindol-5-yl]piperidin-1-yl}cyclobutoxy]piperidin-1-yl}pyrimidin-4-yl)amino]-2-oxo-1-(propan-2-yl)-1,2-dihydroquinolin-3-yl}oxy)-N-methylacetamide] |  |  | < 10 nM | ≥ 70%
14 | CNC(=O)COc1cc2cc(Nc3nc(N4CCC(O[C@H]5C[C@H](N6[C@H](C)CN(c7ccc8c(c7)C(=O)N(C7CCC(=O)NC7=O)C8=O)C[C@@H]6C)C5)CC4)ncc3Cl)ccc2n(C(C)C)c1=O (stereo partly drawn) [Compound 248, 2-[[6-[[5-chloro-2-[4-[3-[(2R,6S)-4-[2-(2,6-dioxo-3-piperidyl)-1,3-dioxo-isoindolin-5-yl]-2,6-dimethyl-piperazin-1-yl]cyclobutoxy]-1-piperidyl]pyrimidin-4-yl]amino]-1-isopropyl-2-oxo-3-quinolyl]oxy]-N-methyl-acetamide] | 50 to 70% | < 10 nM |  | 
15 | CNC(=O)COc1cc2cc(Nc3nc(N4CCC(O[C@H]5C[C@H](N6CC[C@@H](c7ccc8c(c7F)CN([C@H]7CCC(=O)NC7=O)C8=O)C[C@@H]6C)C5)CC4)ncc3Cl)ccc2n(C(C)C)c1=O [Compound 292, 2-({6-[(5-chloro-2-{4-[(1r,3r)-3-[(2S,4R)-4-{2-[(3S)-2,6-dioxopiperidin-3-yl]-4-fluoro-1-oxo-2,3-dihydro-1H-isoindol-5-yl}-2-methylpiperidin-1-yl]cyclobutoxy]piperidin-1-yl}pyrimidin-4-yl)amino]-2-oxo-1-(propan-2-yl)-1,2-dihydroquinolin-3-yl}oxy)-N-methylacetamide] | ≥ 70% | < 10 nM |  | 
16 | CNC(=O)COc1cc2cc(Nc3nc(N4CCC(O[C@H]5C[C@H](N6CC=C(c7ccc8c(c7Cl)CN(C7CCC(=O)NC7=O)C8=O)CC6)C5)CC4)ncc3Cl)ccc2n(C(C)C)c1=O (stereo partly shown) [Compound 429, 2-({6-[(5-chloro-2-{4-[(1r,3r)-3-{4-[4-chloro-2-(2,6-dioxopiperidin-3-yl)-1-oxo-2,3-dihydro-1H-isoindol-5-yl]-1,2,3,6-tetrahydropyridin-1-yl}cyclobutoxy]piperidin-1-yl}pyrimidin-4-yl)amino]-2-oxo-1-(propan-2-yl)-1,2-dihydroquinolin-3-yl}oxy)-N-methylacetamide] | ≥ 70% | < 10 nM |  | 
